# Data as given in patent US20030153475A1, “Composition for treating contact lenses” (priority 2001, published 2003).
# Target: T1, hen egg lysozyme (Gallus gallus, UniProt P00698)
# T1 construct: from tissue; host or cells: hen egg
# Experiment: lysozyme denaturation/stabilization test: lysozyme activity on M. luteus suspension, optical density at 450nm
# Assay type: biochemical
# Conditions: Table 1, saline + 20 mM buffering agent
# Experimental: Each solution included saline and 20 mM of buffering agent as specified in Table 1 below. To each test solution was added 1 mg/ml of hen egg lysozyme as well as a phosphate buffered saline (PBS) control. The test solutions were mixed slowly with a stir bar until the lysozyme was incorporated into the solutions. Five ml of each lysozyme-containing test solution was retained as the unheated control. The remaining 5 ml of each lysozyme-containing test solution were placed in glass less vials, capped with silicone stoppers and incubated in a shaking water bath at 80° C. 40 revolutions per minute (rpm) for 1 hour—these heating conditions are sufficient to denature the lysozyme, absent a stabilization effect provided by the buffering agents. The vials were allowed to come to ambient temperature before testing. A 0.00025 g/ml suspension of M. luteus was prepared from lyophilized cells in PBS. The suspension was continually mixed on a stir plate during the testing period to prevent the suspension from settling. For each set of test solutions, the following were tested (sample): a heated lysozyme-containing test solution (“lysozyme+heat”); an unheated lysozyme-containing test solution (“lysozyme/no heat”; and a test solution without lysozyme (“no lysozyme”). One ml of each sample was placed into a glass test tube to which 9 ml of M. luteus suspension was added and vortexed. A 1-ml sub sample was placed into a disposable cuvette and evaluated on a UV-vis spectrophotometer at 450nm. […] Each of the solutions were evaluated in triplicate. Each of the three optical density measurements from the triplicate samples were averaged.
# [1] = lysozyme + heat (80° C., 1 hour)
# [2] = lysozyme/no heat, 1 mg/ml lysozyme
# T1 sequence (P00698 19-147): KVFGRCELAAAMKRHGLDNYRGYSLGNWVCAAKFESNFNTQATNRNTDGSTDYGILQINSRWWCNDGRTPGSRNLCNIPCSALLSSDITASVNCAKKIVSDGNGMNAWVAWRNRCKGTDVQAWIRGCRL
"Time 0 Min (optical density, 450nm) [1]",Percent Change 5 Min [1],"Time 5 Min (optical density, 450nm) [1]",Percent Change 10 Min [1],"Time 10 Min (optical density, 450nm) [1]","Time 0 Min (optical density, 450nm) [2]",Percent Change 5 Min (lysozyme/no heat),"Time 5 Min (optical density, 450nm) (lysozyme/no heat)",Percent Change 10 Min (lysozyme/no heat),"Time 10 Min (optical density, 450nm) (lysozyme/no heat)","Time 0 Min (optical density, 450nm) (no lysozyme)",Percent Change 5 Min (no lysozyme),"Time 5 Min (optical density, 450nm) (no lysozyme)",Percent Change 10 Min (no lysozyme),"Time 10 Min (optical density, 450nm) (no lysozyme)",Molecule
0.810,80.99%,0.154,85.56%,0.117,0.654,92.66%,0.048,95.72%,0.028,0.859,0.58%,0.854,0.58%,0.854,"NC(CO)(CO)CO [Tris, 2-amino-2-hydroxymethyl-1,3-propanediol]"
0.877,2.96%,0.851,10.49%,0.785,0.654,92.51%,0.049,95.41%,0.030,0.857,0.82%,0.850,0.82%,0.850,O=C(O)CC(O)(CC(=O)O)C(=O)O [Citrate]
0.861,0.34%,0.858,1.05%,0.852,0.634,91.80%,0.052,95.43%,0.029,0.856,0.47%,0.852,0.23%,0.854,Phosphate

Molecule,"Time 0 Min (optical density, 450nm) [1]",Percent Change 5 Min [1],"Time 5 Min (optical density, 450nm) [1]",Percent Change 10 Min [1],"Time 10 Min (optical density, 450nm) [1]","Time 0 Min (optical density, 450nm) [2]",Percent Change 5 Min (lysozyme/no heat),"Time 5 Min (optical density, 450nm) (lysozyme/no heat)",Percent Change 10 Min (lysozyme/no heat),"Time 10 Min (optical density, 450nm) (lysozyme/no heat)","Time 0 Min (optical density, 450nm) (no lysozyme)",Percent Change 5 Min (no lysozyme),"Time 5 Min (optical density, 450nm) (no lysozyme)",Percent Change 10 Min (no lysozyme),"Time 10 Min (optical density, 450nm) (no lysozyme)"
Borate,0.872,21.90%,0.681,55.28%,0.390,0.619,91.44%,0.053,94.51%,0.034,0.853,0.00%,0.853,−0.12%,0.854
